The subject of one assay is IFN-gamma mRNA. Kind of assay: Semiquantitative RT-PCR of IFN-gamma mRNA in splenocytes. In kind it is cell-based, BALB/c mice. The conditions noted are these: splenocytes cultured with ovalbumin plus peptide. On the procedure: The levels of mRNA encoding IL-4, IL-13 and IFN-gamma were also evaluated by semiquantitative RT-PCR analysis. Ovalbumin-induced expression of both IL-4 and IL-13 mRNA was inhibited in splenocytes cultured with the STAT-6-IP and not the STAT-6-CP. […] The number of CD4+ T cells producing IL-4 was also quantified by intracellular cytokine staining. When splenocytes from ovalbumin-sensitized mice were cultured with ovalbumin, there was a significant increase in the number of CD4+ lymphocytes expressing IL-4 (Table 4). The increase in IL-4 expression was abrogated in splenocytes cultured with ovalbumin in the presence of the STAT-6-IP, while the STAT-6-CP had no effect.
Reverse transcriptase (RT)-PCR was used to monitor expression of mRNAs encoding IL-4, IL-13 and IFN-gamma. Materials for RNA extraction and RT-PCR were purchased from INVITROGEN™ Canada (Burlington, Ontario). Total RNA was extracted from splenocytes, treated with DNAse, and 1 μg of RNA was reverse transcribed into cDNA using SUPERSCRIPT™ II reverse transcriptase. […] PCR products were resolved by gel electrophoresis and visualized and quantified on a FLUORCHEM™ 8000 Imaging System (Alpha Innotech, San Leandro, Calif.) using ALPHAEASE™ software (Alpha Innotech). […]

Assay [1] has as its system ovalbumin-sensitized mice. Kind of assay: Airway hyperresponsiveness to methacholine (respiratory system resistance, FlexiVent). In kind it is in vivo, BALB/c mice. The procedure: Six-to-eight week-old male BALB/c mice were obtained from Harlan-Sprague Dawley (Indianapolis, Ind.) and were housed in a conventional animal facility. For each experimental condition, a minimum of 6-8 animals was used. Awake animals were sensitized five days per week for each of two weeks by instillation in each nostril of 5 μL 1% ovalbumin in PBS. Alternatively, animals were sensitized by two weekly systemic, i.p. injections of 0.025% ovalbumin mixed with 4 mg/mL Al(OH)3. Following two weeks rest, animals were challenged for five days by intranasal instillation of 1% ovalbumin. Animals treated with peptides received the STAT-6-IP (15, 50, or 150 μg) or STAT-6-CP (50 or 150 μg) in 10 μL PBS 30 minutes prior to each ovalbumin challenge. Twenty-four hours after the last ovalbumin challenge, mice were deeply anaesthetized with xylazine and sodium pentobarbital and paralyzed with pancuronium bromide. The tail vein was cannulated for drug administration and heart rate was monitored by EKG. The trachea was exposed, a cannula inserted and secured with silk ties and then attached to a computer-controlled small-animal ventilator (FlexiVent; SCIREQ, Montreal, Quebec). Mice were ventilated quasi-sinusoidally with a tidal volume of 8 mL/kg and respiratory rate of 150 breaths/minute. Respiratory system resistance was measured. Airway hyperresponsiveness was by low dose methacholine. Methacholine was injected through the tail vein at dose of 10, 20, 40, 80, 160, 320 μg/kg and the maximal resistance and elastance were recorded. Afterward, the trachea was isolated and a 22-gauge stainless steel catheter was inserted into the proximal trachea and secured with 4-0 silk suture. The lungs were lavaged using 0.5 mL of ice cold 0.9% NaCl. The bronchoalveolar lavage (BAL) fluid was centrifuged to remove intact cells and the supernatant stored at −20° C. for IL-13 analysis by ELISA. […] Six fields were counted, each encompassing 100 cells per slide, and means obtained.

Where no end group is shown, it is not given here.

For the sequence “YARAAARQARAGRGFVSTT [STAT-6-CP, STAT-6 Tyr-641 mutant, control peptide]”, in the assay with IFN-gamma mRNA, the “Expression of IFN-gamma mRNA” value is recorded as “did not change”. The “Response Rmax (cm H2O × s/mL ± SEM)” value in assay [1] (dose response, 150 μg peptide, ovalbumin control 2.02, normal saline 1.41) is listed as 2.53 (±0.31) cm H2O × s/mL; in assay [1] (i.n. ovalbumin sensitization, 50 microgram peptide, ovalbumin control 1.92, normal saline 1.19), 1.80 ± 0.07 cm H2O × s/mL; in assay [1] (i.p. ovalbumin sensitization, 50 microgram peptide, ovalbumin control 1.87, normal saline 1.19), 1.85 ± 0.06 cm H2O × s/mL.
